Experimental data taken from the Deep4Chem optical property database.
Blank lines part the entries; values can stand above or below the compound they belong to.

Assay: solvent given as SMILES
[1] = in O=P(c1ccccc1)(c1ccccc1)c1ccccc1Oc1ccccc1P(=O)(c1ccccc1)c1ccccc1

emission maximum (in ClCCl): 552 nm
Structure (SMILES): CCCCN(CCCC)c1ccc(C#Cc2cc(C#Cc3ccc(N(CCCC)CCCC)cc3)c(C#Cc3ccc([N+](=O)[O-])cc3)cc2C#Cc2ccc([N+](=O)[O-])cc2)cc1

Structure (SMILES): CCCCN(c1ccccc1)c1ccc2c(c1)C(CC)(CC)c1cc(/C=C/c3ccc(/C=C(\C#N)C(=O)O)s3)ccc1-2
emission maximum (in C1CCOC1): 622 nm | emission maximum (in C1COCCO1): 621 nm | emission maximum (in CC#N): 518 nm | emission maximum (in CC(C)=O): 576 nm | emission maximum (in CCOC(C)=O): 590 nm | emission maximum (in CN(C)C=O): 605 nm | emission maximum (in CS(C)=O): 520 nm | emission maximum (in ClCCl): 595 nm

Structure (SMILES): COc1ccc(C2=CC3=C(c4c(C)cc(C)cc4C)c4cc(-c5ccc(OC)cc5)c(-c5ccc(OC)cc5)n4[B-](F)(F)[N+]3=C2c2ccc(OC)cc2)cc1
emission maximum (in C1CCCCC1): 666 nm | emission maximum (in C1CCOC1): 674 nm | emission maximum (in CC#N): 673 nm | emission maximum (in Cc1ccccc1): 677 nm | emission maximum (in ClCCl): 672 nm

emission maximum (in ClCCl): 437 nm
Structure (SMILES): C(S/C=C/c1ccc(-c2ccc(/C=C/SC=C3CCCCCCC3)cc2)cc1)=C1CCCCCCC1

Structure (SMILES): CC(C)(C)c1ccc(C2=C(c3ccc(C(C)(C)C)cc3)C(c3ccc(C(C)(C)C)cc3)=[N+]3C2=C(c2ccccc2)c2c(-c4ccc(C(C)(C)C)cc4)c(-c4ccc(C(C)(C)C)cc4)c(-c4ccc(C(C)(C)C)cc4)n2[B-]3(F)F)cc1
emission maximum (in C1CCCCC1): 634 nm | emission maximum (in C1CCOC1): 637 nm | emission maximum (in CC#N): 629 nm | emission maximum (in Cc1ccccc1): 639 nm | emission maximum (in ClCCl): 636 nm

emission maximum (in CCO): 425 nm
Structure (SMILES): COc1cc2c(cc1F)c(=O)c1cc(F)c(OC)cc1n2C(C)C

Structure (SMILES): O=C(c1ccc(N2c3ccccc3Oc3ccccc32)cc1)c1cccc(C(=O)c2ccc(N3c4ccccc4Oc4ccccc43)cc2)c1
emission maximum (in Cc1ccccc1): 566 nm | emission maximum (in c1cc(-c2cccc(-n3c4ccccc4c4ccccc43)c2)cc(-n2c3ccccc3c3ccccc32)c1): 541 nm

emission maximum (in C1CCOC1): 505 nm
Structure (SMILES): COc1cc2c(cc1-c1cccs1)Cc1c3c(c4c(c1-2)-c1cc(OC)c(-c2cccs2)cc1C4)C(=O)N(CCC(C)C)C3=O

emission maximum (in ClCCl): 559 nm
Structure (SMILES): Cc1ccc(C2=C(c3ccc(C)cc3)c3cccc4c3c(cc3nc5ccccc5nc34)O2)cc1

emission maximum (in C1CCCCC1): 329 nm
Structure (SMILES): CC(C)(C)[Si](C)(C)c1cccc2ccccc12

emission maximum (in ClCCl): 422 nm
Structure (SMILES): CCOC(=O)c1c(-c2cc3ccc(OC)cc3oc2=O)nn(-c2cccc(Cl)c2)c1C(=O)OCC

emission maximum (in ClCCCl): 420 nm
Structure (SMILES): N#Cc1ccc2nc3[nH]c(=O)[nH]c(=O)c3nc2c1

Structure (SMILES): O=C1c2ccc(N(c3ccc(-c4ccccc4)cc3)c3ccc(-c4ccccc4)cc3)cc2C(=O)c2ccc(N(c3ccc(-c4ccccc4)cc3)c3ccc(-c4ccccc4)cc3)cc21
emission maximum (in Cc1ccccc1): 629 nm | emission maximum (in c1ccc2c(c1)c1ccccc1n2-c1ccc(-c2ccc(-n3c4ccccc4c4ccccc43)cc2)cc1): 603 nm

emission maximum (in C1CCOC1): 520 nm
Structure (SMILES): C[Si]1(c2ccccc2)C(c2ccc(-n3c4ccccc4c4ccccc43)cc2)=C(c2ccccc2)C(c2ccccc2)=C1c1ccc(-n2c3ccccc3c3ccccc32)cc1

emission maximum (in C1COCCO1): 439 nm | emission maximum (in CC#N): 452 nm | emission maximum (in CCO): 453 nm | emission maximum (in CCOC(C)=O): 442 nm | emission maximum (in O): 464 nm
Structure (SMILES): CC1=N/C(=C\c2ccncc2)C(=O)N1C

emission maximum (in ClCCl): 550 nm
Structure (SMILES): COc1ccc(-c2c3ccccc3c(C#Cc3ccccc3)c3cc4ccccc4cc23)cc1

emission maximum (in ClCCl): 440 nm
Structure (SMILES): C(=C\c1cccc2ccccc12)/c1ncc(-c2ccccc2)o1

emission maximum (in CO): 796 nm
Structure (SMILES): CC1(C)C(/C=C/C2=C(Oc3ccc(CCN=C=S)cc3I)C(=C/C=C3/N(CCCS(=O)(=O)[O-])c4ccccc4C3(C)C)/CCC2)=[N+](CCCS(=O)(=O)[O-])c2ccccc21

emission maximum (in CO): 400 nm
Structure (SMILES): Oc1ccc(-c2nc(-c3ccccc3)c(-c3ccccc3)[nH]2)cc1

emission maximum (in ClCCl): 443 nm
Structure (SMILES): CC(C)(C)c1ccc2c(c1)c1cc(C(C)(C)C)ccc1n2-c1ccc(N(c2ccc(-c3ccc4c(c3)C(C)(C)c3cc(-c5ccc(N(c6ccc(-n7c8ccc(C(C)(C)C)cc8c8cc(C(C)(C)C)ccc87)cc6)c6ccc(-n7c8ccc(C(C)(C)C)cc8c8cc(C(C)(C)C)ccc87)cc6)cc5)ccc3-4)cc2)c2ccc(-n3c4ccc(C(C)(C)C)cc4c4cc(C(C)(C)C)ccc43)cc2)cc1

emission maximum (in CC1CCCCC1): 650 nm
Structure (SMILES): c12c3c4c5c1c1c6c7c2c2c8c3c3c9c4c4c%10c5c5c1c1c6c6c%11c%12c%13c%14c%15c%16c%17c%14c%14c%18c%13c%11c1c1c5c%10c5c(c%14c%10c%17c%11c%13c%16c%14c%16c%15c%12c%12c%16c(c2c7c%126)c2c8c3c(c%13c%142)c2c9c4c5c%10c%112)c%181

Structure (SMILES): Cc1cc(C)cc(C)c1
emission maximum (in C1CCCCC1): 294.72 nm

emission maximum (in C1CCCCC1): 398 nm | emission maximum (in C1CCOC1): 426 nm | emission maximum (in C1COCCO1): 424 nm | emission maximum (in CC#N): 425 nm | emission maximum (in CC(C)(C)O): 431 nm | emission maximum (in CC(C)O): 434 nm | emission maximum (in CCCCCC): 401 nm | emission maximum (in CCCCO): 436 nm | emission maximum (in CCO): 429 nm | emission maximum (in CCOC(C)=O): 421 nm | emission maximum (in CN(C)C=O): 434 nm | emission maximum (in CO): 434 nm | emission maximum (in CS(C)=O): 439 nm | emission maximum (in ClC(Cl)Cl): 430 nm | emission maximum (in ClCCl): 424 nm | emission maximum (in O): 449 nm | emission maximum (in OCCO): 438 nm
Structure (SMILES): Cc1cc(O)c(C(C)C)cc1/N=C/c1ccc(C(F)(F)F)cc1

emission maximum (in CC#N): 553 nm
Structure (SMILES): COc1ccc(-c2nc(/C(C#N)=C/c3ccc(Cl)cc3)sc2-c2ccc(OC)cc2)cc1

emission maximum (in C1CCCCC1): 380 nm | emission maximum (in CO): 380 nm
Structure (SMILES): C(=C\c1nc2ccccc2o1)/c1ccccc1

emission maximum (in C1CCOC1): 385 nm
Structure (SMILES): C1=C(c2ccccc2)C(c2ccccc2)C(c2ccccc2)=C1

emission maximum (in CC#N): 432 nm
Structure (SMILES): O=c1[nH]c(=O)c2nc3ccccc3nc2[nH]1

emission maximum (in ClC(Cl)Cl): 392 nm
Structure (SMILES): O=C1[C@@H]2[C@H](C(=O)N1c1cccc3cc4ccccc4cc13)[C@@H]1C=C[C@H]2C1

emission maximum (in C1CCOC1): 642 nm
Structure (SMILES): Cc1ccc(C2=C3C=C4C(=[N+]3[B-](F)(F)n3c2cc2c3-c3ccccc3C23c2ccccc2-c2ccccc23)c2ccccc2C42c3ccccc3-c3ccccc32)cc1

Structure (SMILES): CN(C)c1ccc(-c2nc3c(c4c2-c2ccc(C#N)cc2CC4)-c2ccc(C#N)cc2CC3)cc1
emission maximum (in C1CCOC1): 500 nm | emission maximum (in CC#N): 505 nm | emission maximum (in CCCCCC): 444 nm | emission maximum (in CCOC(C)=O): 489 nm | emission maximum (in CO): 489 nm | emission maximum (in CS(C)=O): 516 nm | emission maximum (in Cc1ccccc1): 469 nm | emission maximum (in ClCCl): 482 nm

Structure (SMILES): CC1(C)c2ccccc2N(c2c(F)cc(-c3nnc(-c4ccccc4)o3)cc2F)c2ccccc21
emission maximum (in Cc1ccccc1): 490 nm | emission maximum [1]: 495 nm

emission maximum (in ClC(Cl)Cl): 524 nm
Structure (SMILES): CN(C)c1ccc(-c2nc(-c3ccccc3)n3ccccc23)cc1

emission maximum (in CC#N): 648 nm | emission maximum (in CCCCCC): 655 nm | emission maximum (in CCOC(C)=O): 654 nm | emission maximum (in CO): 646 nm | emission maximum (in ClCCl): 656 nm
Structure (SMILES): N#CSC1=CC2=C(c3c(Cl)cccc3Cl)c3cc(SC#N)c(NCc4ccccc4)n3[B-](F)(F)[N+]2=C1NCc1ccccc1

emission maximum (in ClC(Cl)Cl): 425 nm
Structure (SMILES): CCCCCCc1sc(CCCCCC)c2c3ccsc3c3sccc3c12

emission maximum (in C1CCOC1): 428 nm
Structure (SMILES): CCCCCCCCCc1c2ccccc2cc2c1oc1c3oc4c5oc6cc7ccccc7cc6c5c5ccccc5c4c3c3ccccc3c21

emission maximum (in CC#N): 619 nm | emission maximum (in CCCCCC): 583 nm | emission maximum (in CO): 636 nm
Structure (SMILES): COc1ccc2c(c1)N(c1ccccc1-c1ccccc1)c1cc3c(cc1=N2)Oc1c(cc(C(C)(C)C)cc1C(C)(C)C)N=3

emission maximum (in O): 450 nm
Structure (SMILES): CC(=O)Nc1ccc2c(c1)c(=O)c1ccccc1n2CCCCCC(=O)O

emission maximum (in CCO): 601 nm | emission maximum (in O): 603 nm
Structure (SMILES): O=C([O-])c1ccc(C2=c3cc4c5c(c3Oc3c2cc2c6c3CCCN6CCC2)CCC[N+]=5CCC4)c(C(=O)[O-])c1

emission maximum (in CC#N): 518 nm
Structure (SMILES): Cc1ccc2nc3c(=O)n(C)c(=O)nc-3n(C)c2c1

emission maximum (in ClCCl): 492 nm
Structure (SMILES): CCN(CC)c1ccc2cc(-c3nc4c5ccccc5c5ccccc5c4n3-c3ccc(C(C)(C)C)cc3)c(=O)oc2c1

emission maximum (in ClCCl): 526 nm
Structure (SMILES): CCCCCCCCCCCCN1C(=O)c2c(c3ccc4cc(-c5ccccc5)c(OC)cc4c3c3c2ccc2cc(-c4ccccc4)c(OC)cc23)C1=O

emission maximum (in CCCCCC): 417 nm | emission maximum (in CCOC(C)=O): 429 nm | emission maximum (in CN(C)C=O): 443 nm | emission maximum (in CO): 452 nm | emission maximum (in CS(C)=O): 452 nm | emission maximum (in ClC(Cl)Cl): 428 nm
Structure (SMILES): O=C1CC(c2cccc([N+](=O)[O-])c2)c2c(c3ccccc3c3nc4ccccc4nc23)O1 (configuration not stated)

emission maximum (in C1CCCCC1): 335 nm
Structure (SMILES): CC(C)(C)[Si](C)(C)c1ccc([Si](C)(C)C(C)(C)C)c2ccccc12

emission maximum (in C1CCOC1): 462 nm
Structure (SMILES): N#Cc1c(N2CCCCC2)cc(-c2ccc3ccccc3c2)c2c1-c1ccccc1C2

emission maximum (in CCCCCC): 444 nm
Structure (SMILES): CC(C)[Si](C#Cc1ccc(C#C[Si](C(C)C)(C(C)C)C(C)C)c2nc3c(ccc4ccccc43)nc12)(C(C)C)C(C)C

Structure (SMILES): Cc1ccc(-n2c(-c3ccccc3N)nc3c4ccccc4c4ccccc4c32)cc1
emission maximum (in Cc1ccccc1): 396 nm

emission maximum (in ClCCl): 682 nm
Structure (SMILES): COc1c2ccccc2c(OC)c2c(C#CC(C)(C)C)c3cc4ccccc4cc3c(C#CC(C)(C)C)c12

emission maximum (in CC#N): 489 nm
Structure (SMILES): COc1ccc(-c2nc(-c3cc(Cl)sc3C)c(-c3cc(Cl)sc3C)[nH]2)cc1

Structure (SMILES): c1ccc(-c2nc(-c3ccccc3)nc(-c3cc(-n4c5ccccc5c5ccccc54)c(-n4c5ccccc5c5ncccc54)c(-n4c5ccccc5c5ccccc54)c3)n2)cc1
emission maximum (in C1CCOC1): 481.97 nm | emission maximum (in CC#N): 535.03 nm | emission maximum (in CCCCCC): 422.11 nm | emission maximum (in Cc1ccccc1): 447.02 nm | emission maximum (in ClCCl): 507.14 nm

emission maximum (in ClCCl): 695 nm
Structure (SMILES): CC1=c2c3c4cccc5cccc(c=3c(C)[n+]2[B-](F)(F)n2c(C)c3cc6c(-c7ccccc7)c7c(c(-c8ccccc8)c6cc3c21)-c1cccc2cccc-7c12)c54

emission maximum (in CC#N): 439 nm | emission maximum (in ClCCl): 444 nm
Structure (SMILES): O=c1c2cc(Cl)ccc2nc2n1[B-](F)(F)[n+]1ccccc1-2

Structure (SMILES): COc1ccc(-c2nc(-c3ccc(OC)cc3C)nc(-c3ccc(N4c5ccccc5C5(c6ccccc6-c6ccccc65)c5ccccc54)cc3C)n2)c(C)c1
emission maximum (in Cc1ccccc1): 467 nm | emission maximum [1]: 469 nm

emission maximum (in C1CCCCC1): 470 nm
Structure (SMILES): Cc1cc(C)c(B2c3cc(C(C)(C)C)ccc3-c3c(-c4ccccc4)ccc4cc(C(C)(C)C)cc2c34)c(C)c1
